“And” between values parts separate entries of the source, which are not always exact repeats. Equal values may be shown once. Ends that are not written are not given here. HPMA copolymer = HPMA copolymer made by RAFT copolymerization of HPMA with N-(3-aminopropyl)methacrylamide (APMA), bearing maleimide groups for grafting
What was measured:
[1] = system: pulmonary CD11b+Gr1+ BMDCs; assay: Pulmonary BMDCs (CD11b+Gr1+) by flow cytometry; assay type: in vivo, female BALB/c mice
Experimental: (§1) 4T1 cells (1 × 10^6 cells) were injected into the third mammary fat pad of female BALB/c mice (6–8-week). […] On day 28, blood samples, lungs and tumors were harvested.
(§2) To explore the “seed-soil” crosstalk, the serum, intra-tumoral, and pulmonary concentration of LOX was determined using enzyme-linked immunosorbent assay kits (CSB-EL013041MO, CUSABIO, https://www.cusabio.com/) according to the manufacturer’s instructions. The serum, intra-tumoral, and pulmonary concentration of TGF-β was determined using mouse TGF-β ELISA Kit (Cat No.: HB1328-Mu). The formation of PMN was investigated through lung slices subjected to immunofluorescent staining of LOX, E-cadherin, and S100A8. For immunofluorescent staining of E-cadherin, Lung slices were stained with CoraLite® Plus 647 anti-mouse CD324 (E-cadherin, 1:300 dilution). For immunofluorescent staining of LOX and S100A8, Lung slices were separately stained with anti-LOX recombinant rabbit monoclonal antibody (1:500 dilution) or S100-A8 / MRP8 rabbit pAb (1:500 dilution), followed by staining with goat anti-rabbit IgG H&L Alexa Fluor® 647 (1:1000 dilution), respectively. Single-cell suspensions of lungs were analyzed using flow cytometry to assess BMDC (CD11b^+Gr1^+) with PE anti-mouse/human CD11b antibody (1:300 dilution) and FITC anti-mouse Ly-6G/Ly-6C (Gr-1) antibody (1:300 dilution). Chemokine concentrations in lungs were determined using a mouse CXCL12 ELISA kit.

MMP-9 and TGF-β = assay: Immunofluorescence of MMP-9 and TGF-β in tumor tissues; assay type: in vivo, female BALB/c mice
Experimental: To investigate the epithelial-mesenchymal transition process in tumor tissues, immunofluorescent staining of E-cadherin, vimentin, MMP-9, and TGF-β, along with flow cytometry analysis of E-cadherin and vimentin, were applied. For immunofluorescent staining of E-cadherin and vimentin, tumor slices were stained with CoraLite® Plus 647 anti-mouse CD324 (E-cadherin, 1:300 dilution) and anti-vimentin mouse monoclonal antibody (1:500 dilution) at 4 °C overnight, followed by staining with goat anti-mouse IgG H&L Alexa Fluor® 488 (1:1000 dilution). For flow cytometry analysis of E-cadherin and vimentin, single-cell suspensions of tumor tissues were stained with CoraLite® Plus 647 anti-mouse CD324 (E-cadherin, 1:300 dilution) or sequentially stained with anti-vimentin recombinant rabbit monoclonal antibody and goat anti-rabbit IgG H&L Alexa Fluor® 647 (1:1000 dilution), respectively. For immunofluorescent staining of MMP-9 and TGF-β, tumor slices were separately stained with MMP9 Rabbit pAb (1:500 dilution) or anti-TGF beta 1 recombinant rabbit monoclonal antibody (1:500 dilution), followed by staining with goat anti-rabbit IgG H&L Alexa Fluor® 647 (1:1000 dilution), respectively.

4T1 cells [2] = assay: Transwell migration assay; assay type: cell-based, murine; settings: stimulated 4T1 cells; individual replicates, n = 3
Experimental: (§3) Wound healing assay and transwell migration and invasion assay were conducted to investigate in vitro metastasis inhibition. For the wound healing assay, 4T1 cells (5 × 10^5 cells) were cultured in 12-well plates (NEST Biotechnology) as monolayer with more than 90% coverage. Sterile 200 μL pipette tips were used to scrape off the cells, generating a linear cell-free area in the middle of the well. Subsequently, cells were washed by PBS to remove debris. In the stimulated group, 4T1 cells were stimulated with CXCL12 (100 ng/mL) for 1 h. […] In the P-BS-CM1 → P-CM2 group, 4T1 cells underwent consecutive treatment with P-BS-CM1 for 1 h and P-CM2 for 1 h before CXCL12 stimulation (1 mg/mL BS equivalence, CM1:CM2, 1:1 mol%). Images of the wound were recorded by a microscope at 0 h and 24 h after CXCL12 stimulation, and the wound healing rate was calculated using Image J software. For the transwell migration and invasion assay, 4T1 cells (5 × 10^5 cells) were seeded in the non-coated upper chamber (Millipore, 8 μm) or GelNest™ matrigel (NEST Biotechnology) pre-coated upper chamber. The cells underwent the same treatment conditions as wound healing assay. After 24 h of treatment, migrated or invaded cells across the membrane were stained with 0.1% crystal violet, imaged by microscope, and quantified by absorbance at 570 nm after dissolution.

LOX = assay: Immunofluorescence of LOX in lung tissues; assay type: in vivo, female BALB/c mice
Experimental: as §2

4T1 cells [3] = assay: Transwell invasion assay (matrigel); assay type: cell-based, murine
Experimental: as §3

[4] = system: orthotopic 4T1 breast tumors; assay: Hydroxyproline assay in tumor tissues; assay type: in vivo, female BALB/c mice; parameters: unit not given here
Experimental: as §1
To assess fibrosis in tumor tissues, Masson staining, Sirius staining, immunofluorescent staining of α-SMA and fibronectin, and a quantitative hydroxyproline assay were employed. For immunofluorescent staining of α-SMA and fibronectin, tumor slices were stained with anti-alpha smooth muscle actin recombinant rabbit monoclonal antibody (1:500 dilution) and anti-fibronectin mouse monoclonal antibody (1:500 dilution) at 4 °C overnight, followed by staining with goat anti-mouse IgG H&L Alexa Fluor® 488 (1:1000 dilution) and goat anti-rabbit IgG H&L Alexa Fluor® 647 (1:1000 dilution).

4T1 cells [5] = assay: Wound healing assay; assay type: cell-based, murine; settings: stimulated 4T1 cells; individual replicates, n = 3
Experimental: as §3

ζ-potential (Zetasizer) = assay type: physicochemical; settings: Malvern Zetasizer Nano ZS90; mean ± SD
Experimental: The average molecular weight (Mw) and polydispersity (PDI) of the HPMA copolymer conjugates were determined by gel permeation chromatography (GPC) on an AKTA purifier equipment with a Superose 6 10/300 GL analytical column (GE Healthcare, USA) and a differential refraction detector (KNAUER, 2300, Germany). Hydrodynamic sizes and zeta potentials were determined using a Malvern Zetasizer Nano ZS90 equipment (Malvern Instruments Ltd, Malvern, UK). The contents of BS, CM1, and CM2 were determined using a bicinchoninic acid (BCA) protein assay. The PS concentration was determined by ultraviolet-visible (UV-Vis) spectroscopy at its characteristic absorbance peak (660 nm).

[6] = i.v. days 7, 14, 21 (5 mg/kg BS equivalence; P-CM2 24 h later), analysis day 28, mouse 1 of 5

LGASWHRPDKCCLGYQKRPLPA [Free BS]
Pulmonary CD11b+Gr1+ BMDCs (%) [1, 6]: 31.8%
Pulmonary CD11b+Gr1+ BMDCs (%) ([1]; same, mouse 2 of 5): 39.87%
Pulmonary CD11b+Gr1+ BMDCs (%) ([1]; same, mouse 3 of 5): 35.6%
Pulmonary CD11b+Gr1+ BMDCs (%) ([1]; same, mouse 4 of 5): 41%
Pulmonary CD11b+Gr1+ BMDCs (%) ([1]; same, mouse 5 of 5): 39.4%
Relative fluorescence intensity of MMP-9 in tumor tissues (MMP-9 and TGF-β; replicate 1): 143.238
Relative fluorescence intensity of TGF-β in tumor tissues (MMP-9 and TGF-β; replicate 1): 172.974
Relative fluorescence intensity of MMP-9 in tumor tissues (MMP-9 and TGF-β; replicate 2): 142.904
Relative fluorescence intensity of TGF-β in tumor tissues (MMP-9 and TGF-β; replicate 2): 152.446
Relative fluorescence intensity of MMP-9 in tumor tissues (MMP-9 and TGF-β; replicate 3): 138.899
Relative fluorescence intensity of TGF-β in tumor tissues (MMP-9 and TGF-β; replicate 3): 165.051
Relative fluorescence intensity of MMP-9 in tumor tissues (MMP-9 and TGF-β; replicate 4): 132.502
Relative fluorescence intensity of TGF-β in tumor tissues (MMP-9 and TGF-β; replicate 4): 164.828
Relative fluorescence intensity of MMP-9 in tumor tissues (MMP-9 and TGF-β; replicate 5): 136.888
Relative fluorescence intensity of TGF-β in tumor tissues (MMP-9 and TGF-β; replicate 5): 159.609
Migration content (%) (4T1 cells [2]): 99.141% and 98.012% and 94.753%
Mean fluorescence intensity of LOX in lung tissues (LOX; replicate 1): 145.665
Mean fluorescence intensity of LOX in lung tissues (LOX; replicate 2): 136.817
Mean fluorescence intensity of LOX in lung tissues (LOX; replicate 3): 150.369
Mean fluorescence intensity of LOX in lung tissues (LOX; replicate 4): 132.821
Mean fluorescence intensity of LOX in lung tissues (LOX; replicate 5): 140.21
Invasion content (%) (4T1 cells [3]; replicate 1): 100.41%
Invasion content (%) (4T1 cells [3]; replicate 2): 88.2%
Invasion content (%) (4T1 cells [3]; replicate 3): 97.02%
hydroxyproline in tumor tissues (Fig. 6b) [4, 6]: 0.5754
hydroxyproline in tumor tissues (Fig. 6b) ([4]; same, mouse 2 of 5): 0.4638
hydroxyproline in tumor tissues (Fig. 6b) ([4]; same, mouse 3 of 5): 0.4618
hydroxyproline in tumor tissues (Fig. 6b) ([4]; same, mouse 4 of 5): 0.441
hydroxyproline in tumor tissues (Fig. 6b) ([4]; same, mouse 5 of 5): 0.4238
Wound healing rate (%) (4T1 cells [5]): 89.21% and 80.06% and 77.11%

P-BS: HPMA copolymer-BS conjugate, ~6 BS grafts per polymer (LGASWHRPDKCCLGYQKRPLPA; not fully specified (residues 11, 12); also: about 6 peptides grafted on HPMA copolymer via cysteine-maleimide thioether links)
Pulmonary CD11b+Gr1+ BMDCs (%) [1, 6]: 25.1%
Pulmonary CD11b+Gr1+ BMDCs (%) ([1]; same, mouse 2 of 5): 26.4%
Pulmonary CD11b+Gr1+ BMDCs (%) ([1]; same, mouse 3 of 5): 34.2%
Pulmonary CD11b+Gr1+ BMDCs (%) ([1]; same, mouse 4 of 5): 28.9%
Pulmonary CD11b+Gr1+ BMDCs (%) ([1]; same, mouse 5 of 5): 29.8%
Relative fluorescence intensity of MMP-9 in tumor tissues (MMP-9 and TGF-β; replicate 1): 108.085
Relative fluorescence intensity of TGF-β in tumor tissues (MMP-9 and TGF-β; replicate 1): 144.596
Relative fluorescence intensity of MMP-9 in tumor tissues (MMP-9 and TGF-β; replicate 2): 120.005
Relative fluorescence intensity of TGF-β in tumor tissues (MMP-9 and TGF-β; replicate 2): 130.014
Relative fluorescence intensity of MMP-9 in tumor tissues (MMP-9 and TGF-β; replicate 3): 113.377
Relative fluorescence intensity of TGF-β in tumor tissues (MMP-9 and TGF-β; replicate 3): 139.806
Relative fluorescence intensity of MMP-9 in tumor tissues (MMP-9 and TGF-β; replicate 4): 115.997
Relative fluorescence intensity of TGF-β in tumor tissues (MMP-9 and TGF-β; replicate 4): 146.777
Relative fluorescence intensity of MMP-9 in tumor tissues (MMP-9 and TGF-β; replicate 5): 97.611
Relative fluorescence intensity of TGF-β in tumor tissues (MMP-9 and TGF-β; replicate 5): 131.749
Migration content (%) (4T1 cells [2]): 52.3% and 41.02% and 47.1%
ζ-potential (ζ-potential (Zetasizer)): -15.53±1.45 mV
Mean fluorescence intensity of LOX in lung tissues (LOX; replicate 1): 121.535
Mean fluorescence intensity of LOX in lung tissues (LOX; replicate 2): 108.102
Mean fluorescence intensity of LOX in lung tissues (LOX; replicate 3): 109.056
Mean fluorescence intensity of LOX in lung tissues (LOX; replicate 4): 97.784
Mean fluorescence intensity of LOX in lung tissues (LOX; replicate 5): 101.188
Invasion content (%) (4T1 cells [3]; replicate 1): 61.3%
Invasion content (%) (4T1 cells [3]; replicate 2): 50.16%
Invasion content (%) (4T1 cells [3]; replicate 3): 42.1%
hydroxyproline in tumor tissues (Fig. 6b) [4, 6]: 0.4104
hydroxyproline in tumor tissues (Fig. 6b) ([4]; same, mouse 2 of 5): 0.397
hydroxyproline in tumor tissues (Fig. 6b) ([4]; same, mouse 3 of 5): 0.3878
hydroxyproline in tumor tissues (Fig. 6b) ([4]; same, mouse 4 of 5): 0.3734
hydroxyproline in tumor tissues (Fig. 6b) ([4]; same, mouse 5 of 5): 0.3825
Wound healing rate (%) (4T1 cells [5]): 50.0872% and 55.1712% and 60.2636%

P-CM2-Cy3: Cy3-labeled P-CM2 (C(HPMA copolymer)YGGEVSALEKEVSALEKKNSALEKEVSALEKEVSALEK; also: Cy3 label on conjugate, position not given here)
ζ-potential (ζ-potential (Zetasizer)): -9.21±0.67 mV
